Entries after “also recorded” stand apart in the source; their conditions may differ. Where two headings read alike, the source gives them in different places.
Columns and labels:
HepG2 = test: MTT cytotoxicity assay, HepG2; format: cell-based; settings: Homo sapiens, read-out: IC50 HepG2
Text: (§1) We selected four different cancer cell lines for antiproliferative screening in vitro, which we believed would provide sufficient data on the anticancer potential of the prepared harmirins (hepatocellular carcinoma—HepG2, colorectal adenocarcinoma, Dukes’ type C—SW620, colorectal carcinoma—HCT116, and breast adenocarcinoma—MCF-7). Additionally, we included one non-cancer cell line (embryonic kidney—HEK293T) to evaluate harmirins’ selectivity. The commonly used anticancer drug 5-FU and harmine were used as positive controls. Pre-screening was performed using 50 µM of the tested compound. Only compounds that led to more than 50% reduction in mitochondrial metabolic activity at 50 µM concentration were selected for further analysis. The selectivity index (SI) for each harmirin was calculated as a fractional ratio between the IC50 values for HEK293T and the cancer cell line MCF-7 or HCT116 since these two cell lines were the most susceptible to harmirins.
(§2) The experiments were carried out on five human cell lines purchased from American Type Culture Collection (ATCC, PO BOX 1549, manassas, VA 20108, USA): HepG2 (hepatocellular carcinoma; ATCC® HB-8065™), SW620 (colorectal adenocarcinoma; ATCC® CCL-227™), HCT116 (colorectal carcinoma ATCC® CCL-247™), MCF-7 (breast adenocarcinoma, ATCC® HTB-22™), and HEK293T (embryonic kidney cells; ATCC® CRL-3216™). All cell lines were cultured as monolayers and maintained in Dulbecco’s modified Eagle medium (DMEM) (Capricorn Scientific, USA), supplemented with 10% fetal bovine serum (FBS) (Capricorn Scientific, USA), 100 U/mL penicillin, and 100 µg/mL streptomycin (Capricorn Scientific, USA) in a humidified atmosphere with 5% CO2 at 37 °C. Cells were seeded in 96-well plates (Corning, Durham, NC, USA) at 5000–7000 cells per well (depending on the cell doubling time of a specific cell line) in 0.1 mL media and cultured for 24 h. The next day, the medium was aspirated, and cells were treated for 72 h. Only the compounds that led to more than a 50% reduction in mitochondrial metabolic activity at a concentration of 50 µM were selected for further analysis. The following concentrations of selected compounds were used: 25, 10, 5, and 1 µM. Working dilutions were freshly prepared on the day of the testing. A fresh growth medium was added to untreated control cells, which were defined as 100% viable. DMSO (0.13%) in DMEM was considered a negative control. 5-Fluorouracil (5-FU) and harmine were used as positive controls. At the end of treatment, media was removed, and cells were incubated for 1 h with 0.5 mg/mL MTT (Abcam, Cambridge, MA, USA) dissolved in serum-deprived DMEM. The absorbance was directly proportional to cell viability. The MTT-containing media was then removed, and 0.1 mL isopropanol was added per well to lyse cells and dissolve formazan. The optical density was measured at 570 nm using a microplate reader (VICTOR3, PerkinElmer). Each test point was performed in triplicate. The IC50 values (concentration required to decrease viability by 50%) were calculated by using nonlinear regression on the sigmoidal dose–response plots and are expressed as mean ± SD.

SW620 = test: MTT cytotoxicity assay, SW620; format: cell-based; settings: Homo sapiens, read-out: IC50 SW620
Text: as §1, §2

HCT116 = test: MTT cytotoxicity assay, HCT116; format: cell-based, human; settings: for IC50: Homo sapiens, read-out: IC50 HCT116; for SI (HCT116): ratio IC50 HEK293T / IC50 HCT116
Text: as §1, §2

MCF-7 = test: MTT cytotoxicity assay, MCF-7; format: cell-based, human; settings: for IC50: Homo sapiens, read-out: IC50 MCF-7; for activity against MCF-7, fold stronger than 5-FU: compared with 5-FU IC50; for activity against MCF-7, fold higher than harmine: compared with harmine IC50; for SI (MCF-7): ratio IC50 HEK293T / IC50 MCF-7
Text: as §1, §2

HEK293T = test: MTT cytotoxicity assay, HEK293T (non-cancer); format: cell-based, human; settings: for IC50: Homo sapiens, HEK-293T, 72 h, read-out: IC50 Hek293T
Text: as §1, §2

MCF-7 cells [1] = test: Cell localization by fluorescence microscopy; format: cell-based, human; settings: 10 µM, 30 min, MCF-7, DAPI filter
Description: We further examined the intracellular distribution of the compound 12b in MCF-7 cells, based on its fluorescence properties. Therefore, we incubated MCF-7 cells for 30 min with the tested compound 12b and analyzed its localization by fluorescence microscopy (Figure 3). No autofluorescence was detected by examining untreated cells under typical imaging conditions.
The MCF-7 cells were seeded on round microscopic coverslips placed in 24-well-plates (5 × 10^4 cells per well) and grown at 37 °C and 5% CO2 for 24 h in DMEM supplemented with FBS, penicillin, and streptomycin, as described above. Cells were then incubated with compound 12b (10 µM) for 30 min. Afterward, the medium was discharged, coverslips rinsed twice with PBS, placed on the microscopic slides, and immediately analyzed. The uptake and intracellular distribution of the tested derivative were analyzed under a fluorescence microscope (Olympus BX51) at 400 × magnification, using a DAPI filter. Images were captured with an Olympus DP70 Digital Camera.

MCF-7 cells [2] = test: Cell cycle analysis by flow cytometry (PI); format: cell-based, human; settings: harmine 20 µM; for accumulation of cells in the subG1 phase (apoptotic cells) / effect on G1 phase of cell cycle / effect on percentage of cells in S phase: 12b 10 µM; for accumulation of cells in the subG1 phase (apoptotic cells): 48 h, data not shown; for effect on G1 phase of cell cycle / effect on percentage of cells in S phase: after 24 h (12b: persisted after 48 h)
Description: To gain further insight into the potential mechanism of activity of 12b, and to examine whether and how the cell growth inhibition was associated with cell cycle regulation, we assessed its influence on the cell cycle of MCF-7 cells, 24 and 48 h after the treatment and compared it with the influence of the reference compound harmine (Figure 4).
MCF-7 cells were seeded onto 6-well plates (3 × 10^5 cells per well). After 24 h, 12b was added at 10 µM concentration and harmine at 20 µM concentration. After 24 h or 48 h, the attached cells were trypsinized, combined with floating cells, washed with phosphate buffer saline (PBS), fixed with 70% ethanol, and stored at −20 °C. Immediately before analysis, the cells were washed with PBS and stained with 50 μg/mL of propidium iodide (PI) with the addition of 0.1 μg/μL of RNAse A. The stained cells were then analyzed by BD FACScalibur flow cytometer (20,000 counts were measured). The percentage of cells in each cell cycle phase was determined using FlowJo software (TreeStar Inc., USA). The tests were performed in duplicate and repeated in three separate experiments.

HeLa = tested on: HeLa; design: method as in doi:10.1002/slct.201601020; settings: read-out: GI50 against HeLa; cited from earlier work
HT-29 = tested on: HT-29; design: method as in PMID 26657602; settings: read-out: IC50 against HT-29; cited from earlier work
HGC-27 = tested on: HGC-27; design: method as in PMID 26657602; settings: read-out: IC50 against HGC-27; cited from earlier work
[3] = MTT, mean ± SD, non-cancer cell line

Structure (SMILES) | IC50 (HepG2; HepG2, MTT, 72 h, mean ± SD) | IC50 (SW620; SW-620, MTT, 72 h, mean ± SD) | IC50 (HCT116; HCT-116, MTT, 72 h, mean ± SD) | SI (HCT116) (HCT116) | IC50 (MCF-7; MCF7, MTT, 72 h, mean ± SD) | SI (MCF-7) (MCF-7) | IC50 (HEK293T; [3]) | melting point | other results
Cc1ccc2oc(=O)cc(-n3cc(COc4ccc5c(c4)[nH]c4c(C)nccc45)nn3)c2c1 [12b, 6-Methyl-4-(4-(((1-methyl-9H-pyrido[3,4-b]indol-7-yl)oxy)methyl)-1H-1,2,3-triazol-1-yl)-2H-chromen-2-one] | 19.5 ± 1.5 µM | 20.8 ± 0.4 µM | 4.7 ± 0.6 µM | >10.6 | 6.9 ± 0.7 µM | >7.2 | > 50 µM | 225.5 to 229.5 °C (dec.) | activity against MCF-7, fold stronger than 5-FU (MCF-7): 3.4 fold; activity against MCF-7, fold higher than harmine (MCF-7): twofold; SIs (selectivity towards cancer cells in comparison to HEK293T) (HEK293T; cancer cell line not specified (MCF-7 or HCT116)): > 7.2; intracellular distribution (MCF-7 cells [1]): predominantly cytoplasmic distribution; also recorded: localized exclusively in the cytoplasm; also recorded: localization within the cytoplasm, but not within the nucleus; accumulation of cells in the subG1 phase (apoptotic cells) (MCF-7 cells [2]): up to 10%; effect on G1 phase of cell cycle (MCF-7 cells [2]): strong G1 arrest; effect on percentage of cells in S phase (MCF-7 cells [2]): reduced the percentage of cells in the S phase; also recorded: drastic reduction in the percentage of cells in the S phase
Cc1nccc2c1[nH]c1cc(OCc3cn(-c4cc(=O)oc5ccc(F)cc45)nn3)ccc12 [12d, 6-Fluoro-4-(4-(((1-methyl-9H-pyrido[3,4-b]indol-7-yl)oxy)methyl)-1H-1,2,3-triazol-1-yl)-2H-chromen-2-one] | > 50 µM | > 50 µM | > 50 µM | >1 | > 50 µM | >1 | > 50 µM | 249 to 251 °C (dec.) | –
COc1ccc2c3ccnc(C)c3n(Cc3cn(-c4cc(=O)oc5ccccc45)nn3)c2c1 [13a, 4-(4-((7-Methoxy-1-methyl-9H-pyrido[3,4-b]indol-9-yl)methyl)-1H-1,2,3-triazol-1-yl)-2H-chromen-2-one] | 19.6 ± 1.3 µM | > 50 µM | 3.4 ± 0.6 µM | 3.6 | 34 ± 2.1 µM | 0.4 | 12.4 ± 1.1 µM | 239 to 243.5 °C (dec.) | –
COc1ccc2c3ccnc(C)c3n(Cc3cn(-c4cc(=O)oc5ccc(C)cc45)nn3)c2c1 [13b, 4-(4-((7-Methoxy-1-methyl-9H-pyrido[3,4-b]indol-9-yl)methyl)-1H-1,2,3-triazol-1-yl)-6-methyl-2H-chromen-2-one] | > 50 µM | > 50 µM | > 50 µM | >1 | > 50 µM | >1 | > 50 µM | 253 to 255 °C (dec.) | –
COc1ccc2c3ccnc(C)c3n(Cc3cn(-c4cc(=O)oc5ccc(Cl)cc45)nn3)c2c1 [13c, 6-Chloro-4-(4-((7-methoxy-1-methyl-9H-pyrido[3,4-b]indol-9-yl)methyl)-1H-1,2,3-triazol-1-yl)-2H-chromen-2-one] | > 50 µM | > 50 µM | 34.4 ± 3.3 µM | >1.5 | 32 ± 1.9 µM | >1.6 | > 50 µM | 233 to 239.5 °C (dec.) | –
COc1ccc2c3ccnc(C)c3n(Cc3cn(-c4cc(=O)oc5ccc(F)cc45)nn3)c2c1 [13d, 6-Fluoro-4-(4-((7-methoxy-1-methyl-9H-pyrido[3,4-b]indol-9-yl)methyl)-1H-1,2,3-triazol-1-yl)-2H-chromen-2-one] | 3.1 ± 0.5 µM | 3.3 ± 0.4 µM | 12.7 ± 0.6 µM | 0.3 | 2.7 ± 0.5 µM | 1.5 | 3.9 ± 0.3 µM | 235 to 237 °C (dec.) | activity against MCF-7, fold stronger than 5-FU (MCF-7): 9–13 fold; activity against MCF-7, fold higher than harmine (MCF-7): 5–7 fold
COc1ccc2c(c1)[nH]c1c(C)nccc12 [HAR, harmine] | – | – | – | 3.2 | – | 0.9 | – | – | IC50 (HepG2; HepG2, 72 h): 18.7 ± 0.8 µM; IC50 (SW620; SW-620, 72 h): 4.7 ± 0.6 µM; IC50 (HCT116; HCT-116, 72 h): 4 ± 0.8 µM; IC50 (MCF-7; MCF7, 72 h): 13.5 ± 1.1 µM; IC50 (HEK293T): 12.6 ± 0.8 µM; accumulation of cells in the subG1 phase (apoptotic cells) (MCF-7 cells [2]): ≤ 15%; effect on G1 phase of cell cycle (MCF-7 cells [2]): G1 delay; effect on percentage of cells in S phase (MCF-7 cells [2]): reduction in cells in the S phase; effect on G2/M phase of cell cycle (MCF-7 cells [2]; after 48 h): additional accumulation of cells in the G2/M phase
O=c1cc(-c2nccc3c2[nH]c2ccccc23)c2cc(Cl)ccc2o1 [coumarin–β-carboline hybrid] | – | – | – | – | – | – | – | – | GI50 (HeLa): 67.5 µM
COc1cc(-c2nc(Cn3cc(CN4C(=O)c5ccc(C)cc5C4=O)nn3)cc3c2[nH]c2ccccc23)cc(OC)c1OC [β-carboline–triazole hybrid] | – | – | – | – | – | – | – | – | IC50 (HT-29): 3.67 µM; IC50 (HGC-27): 5.44 µM

Reference: paper PMC8587047, “Synthesis and Biological Evaluation of Harmirins, Novel Harmine–Coumarin Hybrids as Potential Anticancer Agents” (Molecules, 2021)
